# Test results: patent US12157730B2, “Heteroaryl derivative, method for producing same, and pharmaceutical composition comprising same as effective component” (VORONOI INC., priority 2019, dated 2024)
# Target: T1, Ba/F3 cell EGFR Exon20 ins NPH (Homo sapiens, UniProt P00533, INS773NPH)
# T1 construct: expressed in transfected cells; host or cells: Ba/F3
# Experiment: Ba/F3 cell proliferation suppression, EGFR Exon20 ins NPH
# Assay type: cell-based
# Conditions: GI50 class; Ba/F3 cell line with NPH inserted at Exon20 of EGFR; 72 hours
# Method: The following experiment was carried out to evaluate the suppression activity of the compounds according to the present invention against proliferation of Ba/F3 and lung cancer cells which express EGFR mutations.
# Of the cancer cell lines expressing the EGFR gene, A549 was cultured after adding 10% FBS (HyClone) to DMEM (Invitrogen), and RPMI-1640 (Invitrogen) with 10% FBS was used for the other cancer cells. For the Ba/F3 cells, RPMI-1640 with 10% FBS and 5 ng/ml IL-3 (R&D Systems) was used. The transduced Ba/F3 cells were cultured by adding 1 ug/ml puromycin (Invitrogen) to the same medium.
# 24 hours before treatment with the compounds, 3000 to 5000 cells were distributed into each well of a white clear bottom 96 well plate (Corning). The compounds were diluted in dimethylsulfoxide (dilution ratio 3:1; 12 concentrations total) and injected 0.5 ul each for a final concentration of 0.3 nM to 50 um. As for measurement of live cells, 72 hours after treatment with the compounds, a CellTiter-Glo luminescent cell-viability reagent (Promega) was used to store the cells at room temperature for 10 minutes, followed by measurement of luminescence using a reader (SynergyNeo, Biotek). Each test was repeated three times.
# The result was calculated as a cell growth ratio (%) compared to a control. The program GraphPad Prism version 5.0 was used to draw the graphs and calculate the GI50 values.
row,SMILES,Ba/F3 (NPH) Activity
1,"C=CC(=O)Nc1cc(Nc2cc(N3OCC[C@@H]3Cc3ccccc3)ncn2)c(OC)cc1N1CCN(C2CCN(C)CC2)CC1 [compound 970, N-(5-((6-((S)-3-benzylisoxazolidine-2-yl)pyrimidine-4-yl)amino)-4-methoxy-2-(4-(1-methylpiperidine-4-yl)piperazine-1-yl)phenyl)acrylamide]",A (GI50 < 50 nM)
2,C=CC(=O)Nc1cc(Nc2cc(N3OCC[C@@H]3c3ccc(F)c(Cl)c3F)ncn2)c(OC)cc1N1CCC(N2CCN(C3CC3)CC2)CC1 [Example 168],A (GI50 < 50 nM)
3,"C=CC(=O)Nc1cc(Nc2cc(N3OCC[C@@H]3c3c(F)ccc(F)c3F)ncn2)c(OC)cc1N1CCC(N2C[C@@H]3C[C@H]2CO3)CC1 [compound 642, N-(2-(4-((1S,4S)-2-oxa-5-azabicyclo[2.2.1]heptane-5-yl)piperidine-1-yl)-4-methoxy-5-((6-((R)-3-(2,3,6-trifluorophenyl)isoxazolidine-2-yl)pyrimidine-4-yl)amino)phenyl)acrylamide]",A (GI50 < 50 nM)
4,"C=CC(=O)Nc1cc(Nc2cc(N3OCC[C@@H]3Cc3ccccc3)ncn2)c(OC)cc1N1CCC(N2CCOCC2)CC1 [compound 965, N-(5-((6-((S)-3-benzylisoxazolidine-2-yl)pyrimidine-4-yl)amino)-4-methoxy-2-(4-morpholinopiperidine-1-yl)phenyl)acrylamide]",A (GI50 < 50 nM)
5,"C=CC(=O)Nc1cc(Nc2cc(N3OCC[C@@H]3c3cccc(F)c3F)ncn2)c(OC)cc1N(C)CCN(C)C [compound 924, N-(5-((6-((R)-3-(2,3-difluorophenyl)isoxazolidine-2-yl)pyrimidine-4-yl)amino)-2-((2-(dimethylamino)ethyl)(methyl)amino)-4-methoxyphenyl) acrylamide]",A (GI50 < 50 nM)
6,"C=CC(=O)Nc1cc(Nc2cc(N3OCC[C@@H]3Cc3ccccc3)ncn2)c(OC)cc1N1CCN(C(C)C)CC1 [compound 954, N-(5-((6-((S)-3-benzylisoxazolidine-2-yl)pyrimidine-4-yl)amino)-2-(4-isopropylpiperazine-1-yl)-4-methoxyphenyl) acrylamide]",A (GI50 < 50 nM)
7,"C=CC(=O)Nc1cc(Nc2cc(N3OCC[C@@H]3c3cccc(F)c3F)ncn2)c(OC)cc1N1CCN(C)C[C@@H]1C [compound 886, N-(5-((6-((R)-3-(2,3-difluorophenyl)isoxazolidine-2-yl)pyrimidine-4-yl)amino)-2-((S)-2,4-dimethylpiperazine-1-yl)-4-methoxyphenyl) acrylamide]",A (GI50 < 50 nM)
8,"C=CC(=O)Nc1cc(Nc2cc(N3OCC[C@@H]3Cc3cc(F)cc(F)c3)ncn2)c(OC)cc1N(C)CCN(C)C [compound 1031, N-(5-((6-((S)-3-(3,5-difluorobenzyl)isoxazolidine-2-yl)pyrimidine-4-yl)amino)-2-((2-(dimethylamino)ethyl)(methyl)amino)-4-methoxyphenyl) acrylamide]",A (GI50 < 50 nM)
9,"C=CC(=O)Nc1cc(Nc2cc(N3OCC[C@@H]3Cc3cccc(Cl)c3C)ncn2)c(OC)cc1N1CCN(C2CC2)CC1 [compound 1026, N-(5-((6-((S)-3-(3-chloro-2-methylbenzyl)isoxazolidine-2-yl)pyrimidine-4-yl)amino)-2-(4-cyclopropylpiperazine-1-yl)-4-methoxyphenyl) acrylamide]",B (50 nM ≤ GI50 < 500 nM)

# Continued, values first:
row,Ba/F3 (NPH) Activity,SMILES
1,A (GI50 < 50 nM),"C=CC(=O)Nc1cc(Nc2cc(N3OCC[C@@H]3c3cccc(F)c3F)ncn2)c(OC)cc1N1CC2CCC(C1)O2 [compound 887, N-(2-(8-oxa-3-azabicyclo[3.2.1]octan-3-yl)-5-((6-((R)-3-(2,3-difluorophenyl)isoxazolidine-2-yl)pyrimidine-4-yl)amino)-4-methoxyphenyl) acrylamide]"
2,A (GI50 < 50 nM),"C=CC(=O)Nc1cc(Nc2cc(N3OCC[C@@H]3c3cccc(Cl)c3)ncn2)c(OC)cc1N1CCC(N2CC[C@H](N(C)C)C2)CC1 [compound 508, N-(5-((6-((R)-3-(3-chlorophenyl)isoxazolidine-2-yl)pyrimidine-4-yl)amino)-2-(4-((S)-3-(dimethylamino)pyrolidine-1-yl)piperidine-1-yl)-4-methoxyphenyl) acrylamide]"
3,A (GI50 < 50 nM),"C=CC(=O)Nc1cc(Nc2cc(N3OCC[C@@H]3c3ccc(F)c(F)c3)ncn2)c(OC)cc1N1CCC(N2CCN(C3CC3)CC2)CC1 [Example 161, N-(2-(4-(4-cyclopropylpiperazine-1-yl)piperidine-1-yl)-5-((6-((R)-3-(3,4-difluorophenyl)isoxazolidine-2-yl)pyrimidine-4-yl)amino)-4-methoxyphenyl) acrylamide]"
4,A (GI50 < 50 nM),"C=CC(=O)Nc1cc(Nc2cc(N3OCC[C@@H]3c3ccc(F)c(F)c3F)ncn2)c(OC)cc1N1CCC(N2C[C@H]3C[C@@H]2CO3)CC1 [compound 575, N-(2-(4-((1R,4R)-2-oxa-5-azabicyclo [2.2.1]heptane-5-yl)piperidine-1-yl)-4-methoxy-5-((6-((R)-3-(2,3,4-trifluorophenyl)isoxazolidine-2-yl)pyrimidine-4-yl)amino)phenyl)acrylamide]"
5,A (GI50 < 50 nM),"C=CC(=O)Nc1cc(Nc2cc(N3OCC[C@@H]3c3ccc(Cl)cc3)ncn2)c(OC)cc1N1CCC(N2CCN(C(C)=O)CC2)CC1 [compound 806, N-(2-(4-(4-acetylpiperazine-1-yl)piperidine-1-yl)-5-((6-((R)-3-(4-chlorophenyl)isoxazolidine-2-yl)pyrimidine-4-yl)amino)-4-methoxyphenyl) acrylamide]"
6,A (GI50 < 50 nM),"C#Cc1cccc([C@H]2CCON2c2cc(Nc3cc(NC(=O)C=C)c(N4CCC(N5C[C@H]6C[C@@H]5CO6)CC4)cc3OC)ncn2)c1 [compound 619, N-(2-(4-((1R,4R)-2-oxa-5-azabicyclo [2.2.1]heptane-5-yl)piperidine-1-yl)-5-((6-((R)-3-(3-ethynylphenyl)isoxazolidine-2-yl)pyrimidine-4-yl)amino)-4-methoxyphenyl) acrylamide]"
7,A (GI50 < 50 nM),"C=CC(=O)Nc1cc(Nc2cc(N3OCC[C@@H]3c3cccc(Cl)c3Cl)ncn2)c(OC)cc1N1CCN(CC2CC2)CC1 [compound 567, N-(2-(4-(cyclopropylmethyl)piperazine-1-yl)-5-((6-((R)-3-(2,3-dichlorophenyl)isoxazolidine-2-yl)pyrimidine-4-yl)amino)-4-methoxyphenyl) acrylamide]"
8,A (GI50 < 50 nM),"C=CC(=O)Nc1cc(Nc2cc(N3OCC[C@@H]3c3cc(F)ccc3F)ncn2)c(OC)cc1N1CCC(N2CCC(F)(F)CC2)CC1 [compound 817, N-(2-(4,4-difluoro-[1,4'-bipiperidine]-1'-yl)-5-((6-((R)-3-(2,5-difluorophenyl)isoxazolidine-2-yl)pyrimidine-4-yl)amino)-4-methoxyphenyl) acrylamide]"
9,A (GI50 < 50 nM),"C=CC(=O)Nc1cc(Nc2cc(N3OCC[C@@H]3c3ccc(F)c(Cl)c3)ncn2)c(OC)cc1N1CCC(N(C)C)CC1 [compound 755, N-(5-((6-((R)-3-(3-chloro-4-fluorophenyl)isoxazolidine-2-yl)pyrimidine-4-yl)amino)-2-(4-(dimethylamino)piperidine-1-yl)-4-methoxyphenyl) acrylamide]"
10,A (GI50 < 50 nM),"C=CCN1CCN(C2CCN(c3cc(OC)c(Nc4cc(N5OCC[C@@H]5c5ccc(F)c(F)c5)ncn4)cc3NC(=O)C=C)CC2)CC1 [Example 212, N-(2-(4-(4-allylpiperazine-1-yl)piperidine-1-yl)-5-((6-((R)-3-(3,4-difluorophenyl)isoxazolidine-2-yl)pyrimidine-4-yl)amino)-4-methoxyphenyl) acrylamide]"
11,A (GI50 < 50 nM),"C=CC(=O)Nc1cc(Nc2cc(N3OCC[C@@H]3c3cccc(F)c3)ncn2)c(OC)cc1N1CCN(CC)CC1 [Example 246, N-(2-(4-ethylpiperazine-1-yl)-5-((6-((R)-3-(3-fluorophenyl)isoxazolidine-2-yl)pyrimidine-4-yl)amino)-4-methoxyphenyl) acrylamide]"
12,A (GI50 < 50 nM),"C=CC(=O)Nc1cc(Nc2cc(N3OCC[C@@H]3c3cc(F)ccc3F)ncn2)c(OC)cc1N1CCN(C2CC2)CC1 [compound 299, N-(2-(4-cyclopropylpiperazine-1-yl)-5-((6-((R)-3-(2,5-difluorophenyl)isoxazolidine-2-yl)pyrimidine-4-yl)amino)-4-methoxyphenyl) acrylamide]"
13,B (50 nM ≤ GI50 < 500 nM),"C=CC(=O)Nc1cc(Nc2cc(N3OCC[C@@H]3c3ccc(F)c(F)c3)ncn2)c(OC)cc1N1C2CC1CN(C)C2 [compound 542, N-(5-((6-((R)-3-(3,4-difluorophenyl)isoxazolidine-2-yl)pyrimidine-4-yl)amino)-4-methoxy-2-(3-methyl-3,6-diazabicyclo [3.1.1]heptane-6-yl)phenyl)acrylamide]"
